This is an account of results in patent US9643993B2, “Crystalline polymorphic form of ulipristal acetate” (ASKA PHARMACEUTICAL CO., LTD., priority 2012, dated 2017).

Read-outs that look alike come from different tables or passages of the source.

For data set [1] the following is noted: dog, in vivo, po, 25 mg/kg.
Protocol: (§1) For each of ulipristal acetate samples obtained in Examples and Comparative Example, the absorption test was performed as follows. The ulipristal acetate was filled into a gelatin capsule shell (manufacturer: Qualicaps Co., Ltd., size: No. 00, lot: C0079A) to produce a capsule. The capsule was orally administered to 6 female dogs at a dose of 25 mg/kg (in terms of ulipristal acetate). The blood was collected 0.5, 1, 2, 4, 6, 24, and 48 hours after the oral administration. Then the sample was centrifuged to give a plasma. The concentration of the ulipristal acetate in the plasma was measured by a LC-MS/MS (liquid chromatography-tandem mass spectrometry) method, and the elimination half-life (T112), the time to the maximum plasma concentration (Tmax), the maximum plasma concentration (Cmax), the area under the plasma concentration-time curve (AUC), and the mean residence time (MRT) were calculated. The capsule was administered to each female dog twice at dosing intervals (washout period) of one week by crossover method.
The next data set is described as follows: Absorption test in dog. As to conditions: female dogs, oral capsule, 25 mg/kg.
A short description of data set [2]: Solubility in ethanol/water (10/90) mixed solvent at 37° C. To be noted: ethanol/water (volume ratio)=10/90, 37° C., stirred 5 minutes, HPLC.
Protocol: [Solubility] For each of ulipristal acetate samples obtained in Examples and Comparative Example, the solubility was determined as follows. The ulipristal acetate (40 mg) was added to 40 mL of a mixed solvent containing ethanol and water [ethanol/water (volume ratio)=10/90] having a temperature of 37° C. to prepare a test sample. The test sample was stirred by a magnetic stirrer for 5 minutes. Then a portion of the suspension was separated. The solid of the separated portion was filtered out, and the ulipristal acetate content of the residue was quantitatively determined using a high-performance liquid chromatography (column: ODS, column temperature: 40° C., eluate: 0.1% trifluoroacetic acid aqueous solution/acetonitrile mixture (volume ratio 3:2), rate of flow: 1.0 mL/minute, detection: UV 302 nm), and the solubility was calculated.

Protocol for Absorption test in dog: as §1

In general, Cmax refers to the peak of the concentration-time curve. For orientation: Tmax means the time from dosing to the highest level. In data set [1], `CC(=O)O[C@]1(C(C)=O)CCC2C3CCC4=CC(=O)CCC4=C3[C@@H](c3ccc(N(C)C)cc3)C[C@@]21C` (stereo partly drawn) [Comparative Example, 17alpha-acetoxy-11beta-(4-N,N-dimethylaminophenyl)-19-norpregna-4,9-diene-3,20-dione] gave an AUC0-inf of 9390.7 ng·h/mL, an AUC0-t of 8447.4 ng·h/mL, a Cmax of 1490.7 ng/mL and an MRTinf of 16.6 h. Besides, in data set [1], the MRTlast was 11.8 h, the T1/2 was 14.9 h and the Tmax came out at 1.8 h.
For orientation: Solubility means the concentration that dissolves in the medium under given conditions. With `CC(=O)O[C@]1(C(C)=O)CCC2C3CCC4=CC(=O)CCC4=C3[C@@H](c3ccc(N(C)C)cc3)C[C@@]21C` (stereo partly drawn) [Example 1, 17alpha-acetoxy-11beta-(4-N,N-dimethylaminophenyl)-19-norpregna-4,9-diene-3,20-dione], in “Absorption test in dog” (plasma, LC-MS/MS), the AUC0-inf came out at 18078.4 ng·h/mL, the AUC0-t came out at 12194.3 ng·h/mL, the maximum concentration (Cmax) is reported as 2200.2 ng/mL and the MRTinf is 37.7 h. In “Absorption test in dog” (plasma, LC-MS/MS), the MRTlast stood at 11.7 h, the T1/2 was determined as 37.3 h and the Tmax came to 1.2 h. For the same molecule, the “Pharmacokinetics compared with Comparative Example (in words)” value in the data set “Absorption test in dog” (summary of Table 5) is on record as “excellent pharmacokinetics”. For the same molecule, the Solubility in data set [2] amounted to 11.2 µg/mL.
